Data: PubChem BioAssay (NCI)
Several values for one entry are separate records, joined by “and”; a condition that tells them apart may be missing. Equal values may be shown once.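 Cultured in 96-well plates, cells were exposed to test compound for 48 hours across five concentrations. GI50 marks 50% less growth. TGI denotes the concentration required for complete inhibition of growth.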

Tests used:
Experiment in all cases: NCI-60 cell line screen, 48 h
OVCAR-5 ovarian = test system: OVCAR-5 ovarian
K-562 leukemia = test system: K-562 leukemia
SK-OV-3 ovarian = test system: SK-OV-3 ovarian
PC-3 prostate = test system: PC-3 prostate
KM12 colon = test system: KM12 colon
SK-MEL-2 melanoma = test system: SK-MEL-2 melanoma
U251 CNS = test system: U251 CNS
MDA-MB-435 = test system: MDA-MB-435
SW-620 colon = test system: SW-620 colon
HCC-2998 colon = test system: HCC-2998 colon

| SMILES | TGI (OVCAR-5 ovarian) [µM] | TGI (K-562 leukemia) [µM] | TGI (SK-OV-3 ovarian) [µM] | TGI (PC-3 prostate) [µM] | TGI (KM12 colon) [µM] | TGI (SK-MEL-2 melanoma) [µM] | TGI (U251 CNS) [µM] | TGI (MDA-MB-435) [µM] | TGI (SW-620 colon) [µM] | TGI (HCC-2998 colon) [µM] | GI50 (K-562 leukemia) | GI50 (OVCAR-5 ovarian) [µM] | GI50 (SK-OV-3 ovarian) [µM] | GI50 (PC-3 prostate) [µM] | GI50 (KM12 colon) [µM] | GI50 (SK-MEL-2 melanoma) [µM] | GI50 (U251 CNS) [µM] | GI50 (MDA-MB-435) [µM] | GI50 (SW-620 colon) [µM] | GI50 (HCC-2998 colon) [µM] |
| --- | --- | --- | --- | --- | --- | --- | --- | --- | --- | --- | --- | --- | --- | --- | --- | --- | --- | --- | --- | --- |
| N#Cc1nc(C#N)n(C(=O)c2ccccc2)c1NC(=O)c1ccccc1 | > 100 | > 100 | > 100 | > 100 | > 100 | > 100 | > 100 | > 100 | > 100 | > 100 |  |  |  |  |  |  |  |  |  |  |
| NC(=O)Cc1nc2c(=O)[nH]cnc2n1C1OC(CO)C(O)C1O (stereo unspecified) | > 100 | > 100 | > 100 | > 100 | > 100 | > 100 | > 100 | > 100 | > 100 | > 100 |  |  |  |  |  |  |  |  |  |  |
| Cn1c2ccccc2n2c3ncccc3c(=S)c(C#N)c12 | > 100 | > 100 | > 100 | > 100 | > 100 | > 100 | > 100 | > 100 | > 100 | > 100 |  |  |  |  |  |  |  |  |  |  |
| c1ccc(-c2nnn(CCN3CCCCC3)n2)cc1 | > 100 | > 100 | > 100 | > 100 | > 100 | > 100 | > 100 | > 100 | > 100 | > 100 |  |  |  |  |  |  |  |  |  |  |
| CSc1ccc(/C=C2\N=C(c3ccccc3)N(/N=C/c3cc4cc(C)ccc4nc3Cl)C2=O)cc1 | 74.9 | 57.2 | 66.1 | 38 | 33.8 | 43.7 | 51.2 | 26.1 | > 100 | 35.5 |  |  |  |  |  |  |  |  |  |  |
| Cc1[nH]c(=O)[nH]c(=S)c1C(=O)Nc1cccc2cc3ccccc3cc12 | > 100 | > 100 | > 100 | > 100 | > 100 | > 100 | > 100 | > 100 | > 100 | > 100 |  |  |  |  |  |  |  |  |  |  |
| COc1ccc2nc3n(c2c1)CCc1cc(OC)c(OC)cc1-3 | > 100 | > 100 | > 100 | > 100 | > 100 | > 100 | > 100 | > 100 | > 100 | 52.9 |  |  |  |  |  |  |  |  |  |  |
| S=C(NCc1ccccc1)N/N=C/c1ccccn1 | > 100 | > 100 | > 29 | > 100 | > 100 | > 100 | 23.9 | > 100 | > 61.4 | > 68.5 |  |  |  |  |  |  |  |  |  |  |
| C=C1C(=O)O[C@H]2[C@H]3O[C@@H](C[C@@H]12)[C@](C)(O)CC[C@@H]1O[C@@]1(C)CCC[C@H]3C | > 100 | > 100 | > 100 | > 100 | 57.3 | 43.6 | 84.5 | 42.2 | 42.1 | 55.5 |  |  |  |  |  |  |  |  |  |  |
| CO[C@H]1C[C@H](O[C@H]2CC[C@]3(C=O)[C@H]4CC[C@]5(C)[C@@H](C6=CC(=O)OC6)CC[C@]5(O)[C@@H]4CC[C@]3(O)C2)O[C@H](C)[C@H]1O | 1.35 | 1.35 | 0.815 | 1.04 | 1.93 | 2.04 | 2.63 | 1.47 | 2.71 | 8.36 |  |  |  |  |  |  |  |  |  |  |
| NS(=O)(=O)c1ccc(NNc2c3ccccc3nc3c(C(=O)Nc4ccc(S(=O)(=O)Nc5ncccn5)cc4)cccc23)cc1 | > 25 | > 25 | > 25 | > 25 | > 25 | > 25 | > 25 | > 25 | > 25 | > 25 |  |  |  |  |  |  |  |  |  |  |
| CCOP(=O)(OCC)C(C)(CC)NC(=O)C(C(F)(F)F)C(F)(F)F (stereo unspecified) | > 100 | > 100 | > 100 | > 100 | > 100 | > 100 | > 100 | > 100 | > 100 | > 100 | 18.6 µM and 39.1 µM |  |  |  |  |  |  |  |  |  |
| N/C(=N\Nc1ccc(S(N)(=O)=O)cc1)c1cnccn1 | > 100 | > 100 | > 100 | > 100 | > 100 | > 100 | > 100 | > 100 | > 100 | > 100 |  |  |  |  |  |  |  |  |  |  |
| CC1CC/C(=C\c2ccc(Cl)cc2)c2nc(N)c(C#N)c(-c3ccc(Cl)cc3)c21 (stereo unspecified) | > 100 | > 100 | > 100 | > 100 | > 100 | > 100 | > 100 | > 100 | > 100 | > 100 |  |  |  |  |  |  |  |  |  |  |
| CCOP(=O)(OCC)/C(C#N)=C/c1cccn1Cc1ccccc1 | > 100 | > 100 | > 100 | > 100 | 78.3 | 47.8 | 57.9 | 42 | 75.2 | > 100 |  |  |  |  |  |  |  |  |  |  |
| O=C(/C=C/c1cccs1)c1ccccc1Cl | 28.9 | > 100 | > 77.9 | 34.5 | 20.4 | 43.6 | 27.7 | 25.5 | 40.9 | 32.2 |  |  |  |  |  |  |  |  |  |  |
| O=C(c1ccco1)N(C(=S)OC12CC3CC(CC(C3)C1)C2)c1ccccc1 | > 100 | > 100 | > 100 | 60.3 | > 100 | 40.9 | 59.5 | 90.3 | > 100 | 72 |  |  |  |  |  |  |  |  |  |  |
| Cc1ccc(/C(O)=C/c2nc3ccc([N+](=O)[O-])cc3nc2/C=C(\O)c2ccc(C)cc2)cc1 | > 100 | > 100 | 97.6 | > 100 | > 100 | > 100 | > 100 | > 100 | > 100 | > 100 |  |  |  |  |  |  |  |  |  |  |
| O=C(Nc1cccc(-n2cc(-c3ccncc3)c(-c3ccc(O)c(Cl)c3)n2)c1)c1cccc(C(F)(F)F)c1 | > 100 | > 100 | > 100 | > 100 | 64.3 | 38.1 | > 100 | > 100 | > 100 | > 100 | 2.41 µM | 23.7 | 99.1 | 3.62 | 2.67 | 4.54 | 2.14 | 3.57 | 5.81 | 4.37 |
| COc1c(C)c(C/C=C(\C)CC/C=C(\C)CCC=C(C)C)c(OC)c(OC)c1OC | > 100 | > 100 | > 100 | > 100 | > 100 | > 100 | > 100 | > 100 | > 100 | > 100 |  |  |  |  |  |  |  |  |  |  |
